According to publication PMC12209456, “Serine/threonine/tyrosine kinase 1 drives pancreatic carcinogenesis via GSK3β sequestration-mediated Wnt/β-catenin pathway hyperactivation” (Signal Transduction and Targeted Therapy, 2025):
Where a name gives a salt, the structure may show the parent alone.

Legend:
[1] = tested on: Wnt/β-catenin signaling in colorectal cancer; details: cited from earlier work
Source text: Continuously activated Wnt/β-catenin signaling via genetic or epigenetic ways, serves as a potent oncogenic driver across malignancies, spurring intensive efforts to develop targeted inhibitors. Nonetheless, tissue homeostasis and regeneration could be impaired upon the blockade of Wnt signaling, which needs to be resolved and limits Wnt-based therapies. Recent breakthroughs have unmasked tumor-specific vulnerabilities, identifying cancer-cell-restricted regulators that fine-tune Wnt signaling outputs, offering promising avenues for selectively crippling oncogenic Wnt activity.[59] For example ...

[2] = tested on: β-catenin/TCF4 transcriptional activity; test: 7TGC reporter assay; type: cell-based, human; details: PANC-1 cells, EGF (100 ng/mL) or CQ (100 μM)
Source text: The PCR products of STYK1, GSK3β, and Axin1 were cloned into pcDNA3.1-3×HA, pCMV-3×Flag (Sigma, E4401), and pCMV-mCherry (constructed by our lab) respectively. […] To make STYK1, β-catenin, GSK3β, or BLK mutants or truncations, a series of forwarding primers harboring the desired mutations were used in PCRs. The nucleotide sequences of all constructs were confirmed by DNA sequencing. […] DNA and interference RNA were transfected with Lipofectamine 3000 (Invitrogen, L3000015) according to the manufacturer’s instructions. shRNA for STYK1 #1: 5ʹ- [sequence] -3ʹ. #2: 5ʹ- [sequence] -3ʹ. siRNA for STYK1 was 5ʹ- [sequence] -3ʹ. siRNA for β-catenin was 5ʹ- [sequence] -3ʹ. siRNA for HRS was 5ʹ- [sequence] -3ʹ, siRNA for VPS24 was 5ʹ- [sequence] -3ʹ.

CyclinD1/Axin2/C-myc = test: Wnt target gene expression (western blot, qRT-PCR); type: cell-based, human; details: PANC-1 cells, EGF (100 ng/mL) or CQ (100 μM)
Experimental: Whole-cell extracts were prepared with 1% sodium dodecyl sulfate lysis buffer with freshly added 1% proteinase inhibitor cocktail (Biomake, B14001) and 1 mM phenylmethylsulfonyl fluoride (PMSF, MCE, HY-B0496). Western blot was performed as described previously.[20]
Total RNA was extracted from cultured pancreatic cancer cells using Trizol reagent (Invitrogen) according to the manufacturer’s protocol. qRT-PCR was performed as previously described.^3 The mRNA expression level for each sample was normalized to the expression of GAPDH using the 2 ^-ΔΔct method^4 with three biological replicates of comparative qRT-PCR. The following primer sequences were used for qRT-PCR: GAPDH, (forward) 5′- […] -3′ and (reverse) 5′- […] -3′; CyclinD1, (forward) 5′- […] -3′ and (reverse) 5′- […] -3′; C-myc, (forward) 5′- […] -3′ and (reverse) 5′- […] -3′; Axin2, (forward) 5′- […] -3′ and (reverse) 5′- […] -3′; STYK1, (forward) 5′- […] -3′ and (reverse) 5′- […] -3′. Amplification was performed in an ABI Q3 real-time PCR system using a SYBR Green master mix (YEASEN, 11201ES08).

[3] = tested on: STYK1 Y191 phosphorylation by BLK kinase; test: STYK1 tyrosine phosphorylation by BLK (IP-Western / in vitro kinase assay); type: biochemical; details: HEK293T cells, BLK overexpression; GST-STYK1 ICD and HA-BLK kinase reactions
Experimental: (§1) Whole-cell extracts were prepared with 1% sodium dodecyl sulfate lysis buffer with freshly added 1% proteinase inhibitor cocktail (Biomake, B14001) and 1 mM phenylmethylsulfonyl fluoride (PMSF, MCE, HY-B0496). Western blot was performed as described previously.[20] The following primary antibodies were used: anti-phospho-β-catenin (Ser33/37/Thr41) (9561, Cell Signaling Technology), anti-β-catenin (51067-2-AP, Proteintech), anti-β-TrCP (4394, Cell Signaling Technology), anti-Non-phospho (Active) β-catenin (Ser33/37/Thr41) (8814, Cell Signaling Technology), anti-STYK1 (862318, zenbio), anti-C-myc (10828-1-AP, Proteintech), anti-CyclinD1 (60186-1-Ig, Proteintech), anti-Axin2 (20540-1-AP, Proteintech), anti-mouse HA (M180-3, EMD Millipore), anti-Rabbit HA (51064-2-AP, Proteintech), anti-mouse […] (M185, MBL), anti-Rabbit […] […]
GST affinity-isolation assay was performed as described previously.[18] […] Surface plasmon resonance analysis (Biacore T200) quantified binding kinetics between GST-β-catenin/GSK3β and synthetic α-helical peptides, with dissociation constants calculated via BIA evaluation software.

Wnt/β-catenin signaling = test: STYK1-mediated Wnt/β-catenin signaling, PANC-1 cells; type: cell-based, human
Experimental: as §1

p62 and LC3 = test: Autophagic flux markers p62 and LC3, PANC-1 cells (western blot); type: cell-based, human
Experimental: as §1

PANC-1 xenograft = PANC-1 xenograft in nude mice; type: in vivo, mouse
Experimental: PANC-1 xenograft tumors were further established in nude mice via subcutaneous hindlimb injection (Fig. 8e). 25 mg/kg STYK1-driving peptides were intraperitoneally injected twice a week after the subcutaneous tumor formed.
(2) Mouse subcutaneous xenograft experiments were carried out as previously described.[25] Female BALB/c nude mice (4-week-old, 18–22 g) were sourced from Hunan SJA Laboratory Animal (Cat: hnslkjd006; Changsha, China) and housed under SPF conditions with routine health surveillance.

C/C=C/[C@H]1O[C@@](O)([C@@H](C)[C@H](O)[C@H](C)[C@H]2OC(=O)/C(OC)=C/C(C)=C/[C@@H](C)[C@@H](O)[C@@H](CC)[C@@H](O)[C@H](C)C/C(C)=C/C=C/[C@@H]2OC)C[C@@H](O)[C@@H]1C [concanamycin]
inhibition of Wnt/β-catenin signaling [1]: marked inhibition of Wnt/β-catenin signaling in colorectal cancer

CCN(CC)CCCC(C)Nc1ccnc2cc(Cl)ccc12 (stereo not shown) [CQ, chloroquine diphosphate salt]
Wnt signaling in the 7TGC system [2]: decreased Wnt signaling in the 7TGC system
STYK1-mediated alteration of the Wnt/β-catenin target genes C-myc, Axin2 (CyclinD1/Axin2/C-myc): down-regulated STYK1-mediated alteration of the Wnt/β-catenin target genes C-myc, Axin2

CN1CCN(CCOc2cc(OC3CCOCC3)c3c(Nc4c(Cl)ccc5c4OCO5)ncnc3c2)CC1 [saracatinib]
BLK-mediated phosphorylation of STYK1 Y191 [3]: saracatinib inhibition

bafilomycin
inhibition of Wnt/β-catenin signaling [1]: marked inhibition of Wnt/β-catenin signaling in colorectal cancer

O=C(N/N=C/c1ccc(O)c(O)c1)c1cc2ccccc2cc1O [dynasore]
STYK1-mediated activation of Wnt/β-catenin signaling (Wnt/β-catenin signaling): significantly blocked STYK1-mediated activation of Wnt/β-catenin signaling
level of LC3 (p62 and LC3): decreased
level of p62 (p62 and LC3): increased

Oc1nc(-c2ccc(C(F)(F)F)cc2)nc2c1CSCC2 [XAV939]
tumor growth (methods statement) (PANC-1 xenograft; BALB/c nude mice, PANC-1 xenografts, biweekly intraperitoneal, synthetic peptides (25 mg/kg)): reduced tumor growth
STYK1-mediated xenograft tumor growth (PANC-1 xenograft; PANC-1 xenografts with STYK1 WT or mutants, nude mice, n = 3): suppressed STYK1-mediated xenograft tumor growth, including mutant variants
